Test results published in patent US20130283404A1, “EPIGENETICS IN AUTOIMMUNITY” (The Regents of the University of Michigan, priority 2012, published 2013).

Key:
Format in all cases: cell-based, human
[1] = test system: miR-98/Let 7-f2 gene cluster; assay: Methylation of regulatory regions 5' to the miR-98/Let 7-f2 gene cluster in CD4+ T cells; conditions: T cells from women but not men
Procedure: (§1) Genomic DNA from isolated CD4+ T cells (˜3×10^6), was extracted using Qiagen DNeasy Blood & Tissue Kit. 3-5 μg isolated DNA was sonicated to average of ˜500 bp with a Covaris DNA shearing system at UM sequencing core. Fragments were size-evaluated using an Agilent 2100 Bioanalyzer. Approximately 400 ng sonicated DNA was subjected to MeCAP experiments using Active Motif METHYLCOLLECTOR Ultra Kit according to the manufacturer's instructions. DNA fragments from the methylation-enriched fraction were purified using QIAquick PCR Purification Kit (Qiagen). MeCAP enriched and reference input samples were quantitated using quantitative real time PCR(RT-qPCR) with primers designed for specific regions flanking the putative transcription start site of the gene promoters. Differentially methylated regions between patient and normal healthy controls were identified by comparing % enrichment (relative to input) of the 500 bp window of methylated fragments.
Methylation of potential regulatory regions 5′ to the miR-98/Let 7-f2 gene cluster was compared in experimentally demethylated CD4 ? T cells from women relative to men, and in CD4 ? T cells from women with active lupus.

OGT [2] = assay: OGT mRNA by RT-PCR in 5-azaC treated CD4+ T cells; conditions: 72 hours, restimulated with PMA and ionomycin, more in women than in men
Procedure: (§2) For in vitro demethylation assay, isolated CD4+ cells were cultured with 5 μM 5-AzaC for 72 hours. The cells were then treated (restimulated) or not with 5 ng/ml PMA and 500 ng/ml ionomycin or not for an additional 6 hr, and CD4+ cells were recovered and washed 2 times with PBS. Total RNA including miRNAs was isolated using miRNeasy kit (Qiagen) for miRNA and mRNA expression analysis. Genomic DNA was isolated using Qiagen DNeasy Blood & Tissue Kit. (Hewagama, 2009; Lu, 2007; Quddus, 1993; herein incorporated by reference in their entireties).
(§3) Up to 1000 ng total RNA from CD4+ T cells was transcribed into cDNA using Transcriptor First Strand cDNA synthesis kit (Roche) according to the manufacture's instruction. The cDNA was then subjected to real-time PCR using a Rotor-Gene 3000 thermocycler (Corbett). Roche (Basle) FastStart universal SYBR green master (Roche) mix containing 1 μl template cDNA and 0.5 μM forward and reverse primers in a total volume of 20 μl was annealed at 56° C. for a total of 40 cycles. The fold change of expression was calculated using ACTB and 18sRNA as internal reference genes.
(§4) The sex-specific differences in gene expression were confirmed in experimentally demethylated CD4+ T cells from an additional 9 pairs of healthy men and women. […] CD4+ T cells were then purified using magnetic beads, RNA isolated, and OGT and CXCR3 mRNA levels quantitated by RT-PCR. […]

OGT [3] = assay: OGT protein by immunoblotting in 5-azaC treated CD4+ T cells; conditions: CD4+ T cells from women but not men, 72 h
Procedure: (§5) CD4 ? T cell CXCR3 levels were measured by flow cytometry using antibodies from Santa Cruz Biotechnology. OGT was measured by solubilizing bead-purified CD4 ? T cells, fractionating the lysates by electrophoresis, transferring the proteins to nitrocellulose membranes, then probing with anti-OGT antibodies (Abcam). CBL protein levels were measured by immunoblotting with anti-CBL antibody (BD Biosciences) and approaches similar to OGT. Protein bands were visualized using an ECL chemiluminescence detection system, then scanned and quantified with ImageQuant 5.2 software. Values were normalized to b-actin and levels expressed relative to non-stimulated CD4 ? T cells. (Basu, 2009; Lu, 2007, Gorelik, 2012; herein incorporated by reference in their entireties).
PBMC from N healthy men and women were stimulated with PHA, treated with 5-azaC, and 72 hours later restimulated with PMA and ionomycin as for an additional 6 hours as before. CD4+ T cells were isolated and OGT levels compared by immunoblotting.

X chromosome MicroRNA = assay: Genome-wide qPCR miRNA expression profiling of 5-azaC treated CD4+ T cells; conditions: 72 hrs; for LET-7f-2 Fold change (5AzaC/No 5Aza): table line 4
Procedure: as §2
Genome-wide qPCR miRNA expression profiling was performed using (System Biosciences (SBI), Cat# RA660A-1) profiler. Briefly, 800 ng totals RNA containing miRNA was converted to complementary DNA with the QuantiMir kit, according to the manufacturer protocol. Real time PCR in 384 well format using miRNA-specific primers was performed using ABI 7900 real-time PCR system at University of Michigan microarray or sequencing core facilities. Resulting data was analyzed by using Human miRNome profiler software provided by SBI.
To identify methylation sensitive […], miRNA expression profiles were compared between 5-AzaC treated CD4+ cells and non-treated controls from healthy men and women. Differentially expressed miRNAs were identified. Then the X chromosome encoded miRNA's increased by 5-azaC in women, compared to men were identified.
Experiments were conducted during the development of embodiments of the present invention to identify X-linked miRNA's increasing more in experimentally demethylated T cells from women than men and also overexpressed in women relative to men with active lupus. The human X chromosome encodes 128 miRNA while the Y chromosome encodes only 15 (Ensembl release 65—December 2011 © WTSI/EBI WTSI/EBI). PBMC from the peripheral blood of healthy men and healthy women ages 23-35 were stimulated with PHA and treated with 5-azaC as before. 72 hrs later CD4+ T cells were purified and miRNA's surveyed using PCR arrays detecting 80 X chromosome and 824 autosomal miRNAs but no Y miRNA's.

CXCR3 [4] = assay: CXCR3 protein by immunoblotting and flow cytometry on 5-azaC treated CD4+ T cells; conditions: for CXCR3 MFI: mean±SEM
Procedure: as §5
CXCR3 protein levels were similarly compared on 5-azaC treated CD4+ T cells with and without restimulation using immunoblotting and flow cytometry. In contrast to OGT, using untreated and 5-azaC treated CD4+ T cells from male-female pairs, no increase in CXCR3 protein was observed (CXCR3MFI: female 320+91, male 316+108, mean±SEM) despite the increase in CXCR3 mRNA in the women.

CXCR3 [5] = assay: CXCR3 mRNA by RT-PCR in 5-azaC treated CD4+ T cells; conditions: 72 hours, restimulated with PMA and ionomycin, more in women than in men
Procedure: as §2, §3, §4

[6] = test system: CXCR3 regulatory elements; assay: Methylcytosine affinity purification (MeCAP) of CXCR3 regulatory region in CD4+ T cells; conditions: CD4+ T cells from women
Procedure: as §1
(§6) The overexpression of OGT and CXCR3 in 5-azaC treated CD4+ T cells from women relative to men is consistent with demethylation of regulatory regions on their silenced X chromosome. […]

OGT regulatory elements = assay: Methylcytosine affinity purification (MeCAP) of OGT regulatory region in CD4+ T cells; conditions: CD4+ T cells from women but not men
Procedure: as §1, §6

## Nc1ncn([C@@H]2O[C@H](CO)[C@@H](O)[C@H]2O)c(=O)n1 [5-azaC]
[1]
  methylation of regulatory regions 5′ to the miR-98/Let 7-f2 gene cluster: significantly demethylates
OGT [2]
  OGT transcripts: increases
OGT [3]
  OGT protein: increases
X chromosome MicroRNA; Female CD4+ T cells
  MIR-98 Fold change (5AzaC/No 5Aza): 1.7 ± 0.2
  MIR-106a Fold change (5AzaC/No 5Aza): 5.2 ± 1.5
  MIR-188(3p) Fold change (5AzaC/No 5Aza): 12.7 ± 3.0
  MIR-421 Fold change (5AzaC/No 5Aza): 17.4 ± 5.0
  MIR-424 Fold change (5AzaC/No 5Aza): 2.2 ± 0.5
  MIR-450a Fold change (5AzaC/No 5Aza): 2.4 ± 0.7
  MIR-450b Fold change (5AzaC/No 5Aza): 14.3 ± 4.4
  MIR-503 Fold change (5AzaC/No 5Aza): 14.3 ± 4.4
  MIR-508(3p) Fold change (5AzaC/No 5Aza): 4.2 ± 1.1
  LET-7f-2 Fold change (5AzaC/No 5Aza): 3.8 ± 1.2
X chromosome MicroRNA; Male CD4+ T cells
  MIR-98 Fold change (5AzaC/No 5Aza): 1.4 ± 0.2
  MIR-106a Fold change (5AzaC/No 5Aza): 1.1 ± 0.4
  MIR-188(3p) Fold change (5AzaC/No 5Aza): 4.1 ± 2.1
  MIR-421 Fold change (5AzaC/No 5Aza): 7.8 ± 3.7
  MIR-424 Fold change (5AzaC/No 5Aza): 1.1 ± 0.3
  MIR-450a Fold change (5AzaC/No 5Aza): 1.1 ± 0.8
  MIR-450b Fold change (5AzaC/No 5Aza): 3.8 ± 1.8
  MIR-503 Fold change (5AzaC/No 5Aza): 3.8 ± 1.8
  MIR-508(3p) Fold change (5AzaC/No 5Aza): 1.1 ± 1.3
  LET-7f-2 Fold change (5AzaC/No 5Aza): 0.5 ± 0.2
CXCR3 [4]; female CD4+ T cells
  CXCR3 MFI: 320+91
CXCR3 [4]; male CD4+ T cells
  CXCR3 MFI: 316+108
CXCR3 [4]; untreated and 5-azaC treated CD4+ T cells from male-female pairs
  CXCR3 protein: no increase
CXCR3 [5]
  CXCR3 transcripts: increases
[6]
  methylation of region −1567 to −1067 5′ to the CXCR3 transcription start site: significant decrease
OGT regulatory elements
  methylation of region −412 to −88 5′ to OGT transcription start site: significant demethylation
